Reference: patent US6409988B1, “Radiolabeled 1-aryl pyrazoles, the synthesis thereof and the use thereof as pest GABA receptor ligands” (3-Dimensional Pharmaceuticals, Inc., priority 1999, dated 2002)
pIC50: −log10 of the molar value.

Key:
housefly GABA receptor = target: T1, housefly GABA receptor (Musca domestica, UniProt Q75NA5); test: Displacement of 3H-EBOB from the housefly GABA receptor; type: binding
T1 sequence (Q75NA5 30-576): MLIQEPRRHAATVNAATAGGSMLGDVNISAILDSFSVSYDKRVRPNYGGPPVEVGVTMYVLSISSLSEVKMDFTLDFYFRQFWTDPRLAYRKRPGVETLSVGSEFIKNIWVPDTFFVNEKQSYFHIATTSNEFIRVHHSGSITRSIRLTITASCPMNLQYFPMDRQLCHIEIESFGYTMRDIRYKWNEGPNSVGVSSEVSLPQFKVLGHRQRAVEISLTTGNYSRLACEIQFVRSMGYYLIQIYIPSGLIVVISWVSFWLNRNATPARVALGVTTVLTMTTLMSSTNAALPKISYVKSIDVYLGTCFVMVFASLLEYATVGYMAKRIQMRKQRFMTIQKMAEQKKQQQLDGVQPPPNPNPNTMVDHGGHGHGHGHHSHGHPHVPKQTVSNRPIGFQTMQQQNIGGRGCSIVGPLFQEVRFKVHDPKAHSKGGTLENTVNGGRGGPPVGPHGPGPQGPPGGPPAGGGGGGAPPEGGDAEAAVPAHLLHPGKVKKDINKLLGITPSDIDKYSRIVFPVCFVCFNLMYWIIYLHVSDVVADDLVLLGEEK
Method: (§1) Compound 1 binds to the housefly GABA receptor with high affinity (IC50=8 nM, for displacement of 2.6 nM of ^3H-EBOB) and can be radiolabeled at high specific activity (>70 Ci/mmol). These are two highly desirable requirements for a new radioligand.

[1] = Chemical stability of the radioligand; type: physicochemical; conditions: avoids periodic purification steps
Method: as §1

[3H]C([3H])([3H])Sc1nn(-c2c(Cl)cc(C(F)(F)F)cc2Cl)c(N)c1C#N [Compound 1, 4-cyano-1-(2,6-dichloro-4-trifluorophenyl)-3-[^3H3]methylthiopyrazol-5-ylamine]
pIC50 (housefly GABA receptor): 8.10 | chemical stability [1]: chemically stable
